{"source": "patent US6423541B1", "about": "“Process for in vitro selection of high methol producing genotypes” (Council of Scientific&Industrial Reaearch, priority 2000, dated 2002)", "key": {"[1]": {"tested_on": "regenerated shoots of Mentha arvensis variety Gomti", "assay": "Survival of in vitro raised shoots on menthol containing MS basal medium", "format": "cell-based", "description": "The plant varieties analysed were Himalaya, Shivalik, Gomti, MAS-1, Kosi, Kalka of Mentha arvensis L. (2n=96). The suckers of these plant varieties were obtained from CIMAP's national gene bank for medicinal and aromatic plants for planting. The explant materials were collected from the field grown plants and surface sterilized by washing sequentially with 2% detergent, distilled water containing a few drops of Savlon (Johnson and Johnson, India), 0.1% acidified mercuric chloride and autoclaved distilled water before inoculation. About 1 cm long internodal pieces were inoculated in the MS medium (Murasighe and Skoog, 1962) containing vitamins, 100 mg l^−1 myo-inositol 3% wv^−1 sucrose, 1.5% wv^−1 agar (Difco), 0.5 .μg ml^−1 of an auxin, (NAA, 1-napthalene acetic acid) and 5 μg ml^−1 of a cytokinin (BAP, benzyl aminopurine) (Shasany et al, 1998). The cultures were grown at 25±2° C. and 400 to 600 lux light intensity with 16 h photoperiod. The regenerated shoots were separated 12 weeks after the explant inoculation for rooting and/or testing menthol tolerance.\nThe regenerated shoots (3-4 cm long, containing the apical bud and 2-3 nodes) separated after 12 weeks, were inoculated into MS basal medium with or without menthol (0 to 100 μg ml^−1). Concentration of menthol in each treatment was stepped up by 10 μg in a sequential manner. On each kind of these media, 5 independently regenerated shoots were inoculated per flask; 4 flasks were inoculated per replication and each treatment was replicated 5 times, making the number of flasks to 20 and number of explants to 100 for each concentration of menthol. The experiment was conducted in the completely randomized design (CRD) fashion. Cultures were incubated and maintained at 25±2° C. and 400-600 lux light intensity with 16-hour photoperiod. The wilting response and lethality in explants was recorded every 24 hours over a period of one week."}, "[2]": {"tested_on": "callus mediated regenerants of Mentha arvensis cv. Himalaya", "assay": "Survival of callus mediated regenerants from internodal explants at different concentrations of menthol", "format": "cell-based", "settings": "for Survival after 24 hours Number / Survival after 7 days Number: 20 shoots tested per replication", "description": "The Applicants selected the improved plant variety cv. Himalaya (U.S. Pat. PP 10,935: Kumar et al 1999) of Mentha arvensis L. as the base material for further improvement and selection. This variety is a hybrid between variety Gomti and Kalka and bears the high proliferating habit of Gomti and high menthol content, disease tolerant characters of Kalka. The explant material was collected from the field grown plants and surface sterilized by washing sequentially with 2% detergent, distilled water containing a few drops of Savlon (Johnson and Johnson, India), 0.1% acidified mercurie chloride and autoclaved distilled water before inoculation. About 1 cm long internode pieces were inoculated in the MS medium (Murashige and Skoog 1962) containing 0.2 μg ml^−1 concentrations of the auxin 2,4 dichlorophenoxyacetic acid (2,4-D) and 7 μg ml^−1 of the cytokinin 6-(γγ′- dimethylallyl amino) purine (2iP or 2aP) (Khanuja et al. 1998). This procedure has been highly efficient in generating variation in cultures of mints with greater frequencies. The cultures were grown at 25±2° C. and 400 to 600 lux light intensity with 16-h photoperiod. The regenerated shoots were separated 12 weeks latter the explant inoculation for rooting and/or screening.\nThe regenerated shoots (3-4 cm long, containing the apical bud and 2-3 nodes) separated from the 2,4D/2iP medium, were inoculated into MS basal medium containing vitamins, 100 mg l^−1 myo-inositol, 3% wv^−1 sucrose, 1.5% wv^−1 agar (Difco), with or without menthol (0 to 100 μg ml^−1, concentration stepped up by 10 μg serially in each treatment). On each kind of these media, 5 independent regenerated shoots were inoculated per flask; 4 flasks were inoculated per replication and each treatment was replicated 5 times, making the number of flasks to 20 and number of explants to 100 for each concentration of menthol. Like the earlier experiment this experiment was also conducted in the completely randomised design (CRD) fashion. Cultures were incubated and maintained at 25±2° C. and 400-600 lux light intensity with 16 hour photoperiod. The nature of initial responses in explants was recorded every 24 hours over a period of one week."}}}
{"compound": "CC1CCC(C(C)C)C(O)C1", "note": "(stereo not shown) [menthol]", "values": [{"measurement": "lethality", "setting": "[1]; 100-ppm menthol, twenty-four hours after incubation", "result": 99, "unit": "%"}, {"measurement": "Survival after 7 days Number", "setting": "[1]; menthol 10 μg ml^−1", "result": "20.0 ± 0.00"}, {"measurement": "Survival after 24 hours Number", "setting": "[1]; menthol 10 μg ml^−1, 20 shoots tested per replication", "result": "20.0 ± 0.00"}, {"measurement": "Survival after 7 days Number", "setting": "[1]; menthol 20 μg ml^−1", "result": "20.0 ± 0.00"}, {"measurement": "Survival after 24 hours Number", "setting": "[1]; menthol 20 μg ml^−1, 20 shoots tested per replication", "result": "20.0 ± 0.00"}, {"measurement": "Survival after 7 days Number", "setting": "[1]; menthol 30 μg ml^−1", "result": "20.0 ± 0.00"}, {"measurement": "Survival after 24 hours Number", "setting": "[1]; menthol 30 μg ml^−1, 20 shoots tested per replication", "result": "20.0 ± 0.00"}, {"measurement": "Survival after 7 days Number", "setting": "[1]; menthol 40 μg ml^−1", "result": "16.8 ± 0.48"}, {"measurement": "Survival after 24 hours Number", "setting": "[1]; menthol 40 μg ml^−1, 20 shoots tested per replication", "result": "20.0 ± 0.00"}, {"measurement": "Survival after 7 days Number", "setting": "[1]; menthol 50 μg ml^−1", "result": "7.0 ± 0.41"}, {"measurement": "Survival after 24 hours Number", "setting": "[1]; menthol 50 μg ml^−1, 20 shoots tested per replication", "result": "16.0 ± 0.90"}, {"measurement": "Survival after 7 days Number", "setting": "[1]; menthol 60 μg ml^−1", "result": "4.0 ± 0.57"}, {"measurement": "Survival after 24 hours Number", "setting": "[1]; menthol 60 μg ml^−1, 20 shoots tested per replication", "result": "12.0 ± 0.71"}, {"measurement": "Survival after 7 days Number", "setting": "[1]; menthol 70 μg ml^−1", "result": "0.4 ± 0.32"}, {"measurement": "Survival after 24 hours Number", "setting": "[1]; menthol 70 μg ml^−1, 20 shoots tested per replication", "result": "6.0 ± 0.32"}, {"measurement": "Survival after 7 days Number", "setting": "[1]; menthol 80 μg ml^−1", "result": "0.0 ± 0.00"}, {"measurement": "Survival after 24 hours Number", "setting": "[1]; menthol 80 μg ml^−1, 20 shoots tested per replication", "result": "1.6 ± 0.31"}, {"measurement": "Survival after 7 days Number", "setting": "[1]; menthol 90 μg ml^−1", "result": "0.0 ± 0.00"}, {"measurement": "Survival after 24 hours Number", "setting": "[1]; menthol 90 μg ml^−1, 20 shoots tested per replication", "result": "1.0 ± 0.41"}, {"measurement": "Survival after 7 days Number", "setting": "[1]; menthol 100 μg ml^−1", "result": "0.0 ± 0.00"}, {"measurement": "Survival after 24 hours Number", "setting": "[1]; menthol 100 μg ml^−1, 20 shoots tested per replication", "result": "0.2 ± 0.26"}, {"measurement": "shoot survival", "setting": "[2]; at and above 80 μg ml^−1 menthol, after 7th day", "result": "No shoots were able to survive"}, {"measurement": "Survival after 24 hours %", "setting": "[2]; menthol 10 μg ml^−1", "result": 100, "unit": "%"}, {"measurement": "Survival after 7 days %", "setting": "[2]; menthol 10 μg ml^−1", "result": 100, "unit": "%"}, {"measurement": "Survival after 24 hours Number", "setting": "[2]; menthol 10 μg ml^−1", "result": "20.0 ± 0.00"}, {"measurement": "Survival after 7 days Number", "setting": "[2]; menthol 10 μg ml^−1", "result": "20.0 ± 0.00"}, {"measurement": "Survival after 24 hours %", "setting": "[2]; menthol 20 μg ml^−1", "result": 100, "unit": "%"}, {"measurement": "Survival after 7 days %", "setting": "[2]; menthol 20 μg ml^−1", "result": 100, "unit": "%"}, {"measurement": "Survival after 24 hours Number", "setting": "[2]; menthol 20 μg ml^−1", "result": "20.0 ± 0.00"}, {"measurement": "Survival after 7 days Number", "setting": "[2]; menthol 20 μg ml^−1", "result": "20.0 ± 0.00"}, {"measurement": "Survival after 24 hours %", "setting": "[2]; menthol 30 μg ml^−1", "result": 100, "unit": "%"}, {"measurement": "Survival after 7 days %", "setting": "[2]; menthol 30 μg ml^−1", "result": 100, "unit": "%"}, {"measurement": "Survival after 24 hours Number", "setting": "[2]; menthol 30 μg ml^−1", "result": "20.0 ± 0.00"}, {"measurement": "Survival after 7 days Number", "setting": "[2]; menthol 30 μg ml^−1", "result": "20.0 ± 0.00"}, {"measurement": "Survival after 24 hours %", "setting": "[2]; menthol 40 μg ml^−1", "result": 100, "unit": "%"}, {"measurement": "Survival after 7 days %", "setting": "[2]; menthol 40 μg ml^−1", "result": 88, "unit": "%"}, {"measurement": "Survival after 24 hours Number", "setting": "[2]; menthol 40 μg ml^−1", "result": "20.0 ± 0.00"}, {"measurement": "Survival after 7 days Number", "setting": "[2]; menthol 40 μg ml^−1", "result": "17.6 ± 0.66"}, {"measurement": "Survival after 24 hours %", "setting": "[2]; menthol 50 μg ml^−1", "result": 85, "unit": "%"}, {"measurement": "Survival after 7 days %", "setting": "[2]; menthol 50 μg ml^−1", "result": 45, "unit": "%"}, {"measurement": "Survival after 24 hours Number", "setting": "[2]; menthol 50 μg ml^−1", "result": "17.0 ± 0.91"}, {"measurement": "Survival after 7 days Number", "setting": "[2]; menthol 50 μg ml^−1", "result": "9.0 ± 0.41"}, {"measurement": "Survival after 24 hours %", "setting": "[2]; menthol 60 μg ml^−1", "result": 70, "unit": "%"}, {"measurement": "Survival after 7 days %", "setting": "[2]; menthol 60 μg ml^−1", "result": 10, "unit": "%"}, {"measurement": "Survival after 24 hours Number", "setting": "[2]; menthol 60 μg ml^−1", "result": "14.0 ± 0.58"}, {"measurement": "Survival after 7 days Number", "setting": "[2]; menthol 60 μg ml^−1", "result": "2.0 ± 0.41"}, {"measurement": "Survival after 24 hours %", "setting": "[2]; menthol 70 μg ml^−1", "result": 45, "unit": "%"}, {"measurement": "Survival after 7 days %", "setting": "[2]; menthol 70 μg ml^−1", "result": 1, "unit": "%"}, {"measurement": "Survival after 24 hours Number", "setting": "[2]; menthol 70 μg ml^−1", "result": "9.0 ± 0.91"}, {"measurement": "Survival after 7 days Number", "setting": "[2]; menthol 70 μg ml^−1", "result": "0.2 ± 0.26"}, {"measurement": "shoot survival", "setting": "[2]; menthol 70 μg ml^−1, within 24 hours of inoculation", "result": "about 45%"}, {"measurement": "death of shoots", "setting": "[2]; menthol 70 μg ml^−1, within 7 days after inoculation", "result": "~99", "unit": "%"}, {"measurement": "Survival after 24 hours %", "setting": "[2]; menthol 80 μg ml^−1", "result": 20, "unit": "%"}, {"measurement": "Survival after 7 days %", "setting": "[2]; menthol 80 μg ml^−1", "result": 0, "unit": "%"}, {"measurement": "Survival after 24 hours Number", "setting": "[2]; menthol 80 μg ml^−1", "result": "4.0 ± 0.58"}, {"measurement": "Survival after 7 days Number", "setting": "[2]; menthol 80 μg ml^−1", "result": "0.0 ± 0.00"}, {"measurement": "Survival after 24 hours %", "setting": "[2]; menthol 90 μg ml^−1", "result": 10, "unit": "%"}, {"measurement": "Survival after 7 days %", "setting": "[2]; menthol 90 μg ml^−1", "result": 0, "unit": "%"}, {"measurement": "Survival after 24 hours Number", "setting": "[2]; menthol 90 μg ml^−1", "result": "2.0 ± 0.40"}, {"measurement": "Survival after 7 days Number", "setting": "[2]; menthol 90 μg ml^−1", "result": "0.0 ± 0.00"}, {"measurement": "Survival after 24 hours %", "setting": "[2]; menthol 100 μg ml^−1", "result": 0, "unit": "%"}, {"measurement": "Survival after 7 days %", "setting": "[2]; menthol 100 μg ml^−1", "result": 0, "unit": "%"}, {"measurement": "Survival after 24 hours Number", "setting": "[2]; menthol 100 μg ml^−1", "result": "0.0 ± 0.00"}, {"measurement": "Survival after 7 days Number", "setting": "[2]; menthol 100 μg ml^−1", "result": "0.0 ± 0.00"}]}
